Source: ChEMBL document CHEMBL3400001, “Tricyclic 1,5-naphthyridinone oxabicyclooctane-linked novel bacterial topoisomerase inhibitors as broad-spectrum antibacterial agents-SAR of left-hand-side moiety (Part-2)” (Bioorg Med Chem Lett, 2015)
Converted amounts (≈) assume the structure as drawn. The source made the active and inactive calls. The calls are words filed in the database; no cut-off is given here.

Columns and labels:
Staphylococcus aureus [1] = assay: Ratio of MIC for quinolone-resistant Staphylococcus aureus MS5935 to MIC for quinolone-[…]; format: functional
Staphylococcus aureus [2] = assay: Antimicrobial activity against Staphylococcus aureus Smith by micro broth dilution or agar based method; format: functional
Acinetobacter baumannii = assay: Antimicrobial activity against Acinetobacter baumannii IID876 by micro broth dilution or agar based method; format: functional
[3] = molecular target: T1, Voltage-gated inwardly rectifying potassium channel KCNH2 (Homo sapiens, UniProt Q12809); assay: Inhibition of human ERG by MK499 binding assay
T1 sequence (Q12809 whole entry): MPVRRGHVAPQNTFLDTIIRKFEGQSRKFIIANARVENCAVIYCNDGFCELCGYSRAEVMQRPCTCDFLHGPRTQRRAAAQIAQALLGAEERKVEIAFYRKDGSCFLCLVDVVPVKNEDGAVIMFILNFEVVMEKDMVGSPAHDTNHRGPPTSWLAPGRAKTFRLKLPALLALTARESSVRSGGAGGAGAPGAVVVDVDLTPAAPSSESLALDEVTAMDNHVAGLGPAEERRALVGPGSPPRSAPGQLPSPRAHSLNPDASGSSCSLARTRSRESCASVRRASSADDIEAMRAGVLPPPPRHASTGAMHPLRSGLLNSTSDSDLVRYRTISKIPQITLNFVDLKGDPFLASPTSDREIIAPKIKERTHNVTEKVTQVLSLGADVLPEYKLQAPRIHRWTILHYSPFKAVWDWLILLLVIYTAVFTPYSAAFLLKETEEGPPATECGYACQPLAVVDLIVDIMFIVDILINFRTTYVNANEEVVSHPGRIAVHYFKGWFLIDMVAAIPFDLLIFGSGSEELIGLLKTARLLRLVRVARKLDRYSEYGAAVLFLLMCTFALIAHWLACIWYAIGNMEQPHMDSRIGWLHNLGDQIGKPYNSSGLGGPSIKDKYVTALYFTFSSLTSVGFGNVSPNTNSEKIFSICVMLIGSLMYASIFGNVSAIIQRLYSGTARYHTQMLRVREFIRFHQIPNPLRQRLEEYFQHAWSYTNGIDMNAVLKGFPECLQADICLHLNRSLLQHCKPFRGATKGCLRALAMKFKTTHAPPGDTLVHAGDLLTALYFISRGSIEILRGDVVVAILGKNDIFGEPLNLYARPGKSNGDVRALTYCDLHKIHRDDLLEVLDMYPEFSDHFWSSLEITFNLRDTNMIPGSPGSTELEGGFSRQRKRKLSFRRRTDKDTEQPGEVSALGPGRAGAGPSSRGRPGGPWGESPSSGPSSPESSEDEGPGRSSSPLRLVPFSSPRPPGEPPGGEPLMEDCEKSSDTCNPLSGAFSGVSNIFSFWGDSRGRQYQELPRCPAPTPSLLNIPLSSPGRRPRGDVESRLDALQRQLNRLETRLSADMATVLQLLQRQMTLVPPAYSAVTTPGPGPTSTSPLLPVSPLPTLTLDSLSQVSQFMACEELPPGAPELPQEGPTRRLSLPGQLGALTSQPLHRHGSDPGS

Escherichia coli = assay: Antimicrobial activity against Escherichia coli ATCC 25922 by micro broth dilution or agar based method; format: functional
Enterococcus faecium = assay: Antimicrobial activity against vancomycin-resistant Enterococcus faecium A2373 expressing VanA by micro broth dilution or agar based method; format: functional
Enterococcus faecalis = assay: Antimicrobial activity against Enterococcus faecalis ATCC 29212 MB by micro broth dilution or agar based method; format: functional
Streptococcus pneumoniae = assay: Antimicrobial activity against Streptococcus pneumoniae IID554 by micro broth dilution or agar based method; format: functional
Pseudomonas aeruginosa = assay: Antimicrobial activity against Pseudomonas aeruginosa PAO1 by micro broth dilution or agar based method; format: functional
Staphylococcus aureus [4] = assay: Antimicrobial activity against Staphylococcus aureus infected in mouse model of bacteremia at 50 mg/kg, po; format: functional, organism-based; parameters: dose 50 mg/kg
Staphylococcus aureus [5] = assay: Antimicrobial activity against Staphylococcus aureus infected in mouse model of bacteremia at 50 mg/kg, iv; format: functional, organism-based; parameters: dose 50 mg/kg
Haemophilus influenzae = assay: Antimicrobial activity against Haemophilus influenzae ATCC 49247 by micro broth dilution or agar based method; format: functional
Moraxella catarrhalis = assay: Antimicrobial activity against Moraxella catarrhalis ATCC 25238 by micro broth dilution or agar based method; format: functional
Staphylococcus aureus [6] = assay: Antimicrobial activity against quinolone-sensitive Staphylococcus aureus MS5935
Staphylococcus aureus [7] = assay: Antimicrobial activity against quinolone-resistant Staphylococcus aureus MS5935; format: functional
[8] = molecular target: T1, Voltage-gated inwardly rectifying potassium channel KCNH2; assay: Inhibition of human ERG expressed in CHO cells by Patch express assay; format: cell-based
[9] = Staphylococcus aureus, Smith, read-out: MIC
[10] = Acinetobacter baumannii, IID876, read-out: MIC
[11] = Escherichia coli, ATCC 25922, read-out: MIC
[12] = Enterococcus faecium, A2373, read-out: MIC
[13] = Enterococcus faecalis, ATCC 29212 MB, read-out: MIC
[14] = Streptococcus pneumoniae, IID554, read-out: MIC
[15] = Pseudomonas aeruginosa, PAO1, read-out: MIC

Row | Compound | Ratio (Staphylococcus aureus [1]) | MIC (Staphylococcus aureus [2]; [9]) [µg/mL] | MIC (Acinetobacter baumannii; [10]) [µg/mL] | IC50 [3] [µM] | MIC (Escherichia coli; [11]) [µg/mL] | MIC (Enterococcus faecium; [12]) [µg/mL] | MIC (Enterococcus faecalis; [13]) [µg/mL] | MIC (Streptococcus pneumoniae; [14]) [µg/mL] | MIC (Pseudomonas aeruginosa; [15]) [µg/mL] | MIC (Haemophilus influenzae) [µg/mL] | MIC (Moraxella catarrhalis) [µg/mL] | also measured
1 | O=C1COc2ccc(CNC34CCC(C[C@]5(O)CN6C(=O)CCc7ncc(F)c5c76)(CC3)OC4)nc2N1 | <4 | 8 (≈ 15.7 µM) | 32 (≈ 62.8 µM) | > 60 | 32 (≈ 62.8 µM) | 32 (≈ 62.8 µM) | 16 (≈ 31.4 µM) | 8 (≈ 15.7 µM) | 32 (≈ 62.8 µM) | – | – | –
2 | O=C1COc2ccc(CNC34CCC(C[C@@]5(O)Cn6c(=O)ccc7ncc(F)c5c76)(CC3)OC4)nc2N1 | – | 2 (≈ 3.94 µM) | 32 (≈ 63.1 µM) | – | 16 (≈ 31.5 µM) | 32 (≈ 63.1 µM) | 8 (≈ 15.8 µM) | 4 (≈ 7.88 µM) | 32 (≈ 63.1 µM) | – | – | Activity (Staphylococcus aureus [4]): inactive; Activity (Staphylococcus aureus [5]): inactive
3 | O=C1COc2ccc(CNC34CCC(CC5(O)Cn6c(=O)c(Cl)cc7ncc(F)c5c76)(CC3)OC4)nc2N1 (racemic) | <4 | 2 (≈ 3.69 µM) | 16 (≈ 29.5 µM) | > 60 | 16 (≈ 29.5 µM) | 32 (≈ 59 µM) | 8 (≈ 14.8 µM) | 2 (≈ 3.69 µM) | 32 (≈ 59 µM) | 8 (≈ 14.8 µM) | 2 (≈ 3.69 µM) | –
4 | CO[C@@]1(CC23CCC(NCc4ccc5c(n4)NC(=O)CO5)(CC2)CO3)Cn2c(=O)ccc3ncc(F)c1c32 | <4 | 4 (≈ 7.67 µM) | 16 (≈ 30.7 µM) | 7.3 | 32 (≈ 61.4 µM) | 32 (≈ 61.4 µM) | 8 (≈ 15.3 µM) | 2 (≈ 3.83 µM) | 32 (≈ 61.4 µM) | – | – | –
5 | O=C1COc2ccc(CNC34CCC(CC5(F)Cn6c(=O)ccc7ncc(F)c5c76)(CC3)OC4)nc2N1 (racemic) | – | 0.25 (≈ 0.491 µM) | 1 (≈ 1.96 µM) | – | 4 (≈ 7.85 µM) | 4 (≈ 7.85 µM) | 2 (≈ 3.93 µM) | 0.5 (≈ 0.981 µM) | 32 (≈ 62.8 µM) | – | – | –
6 | O=C1COc2ccc(CNC34CCC(C[C@]5(O)Cn6c(=O)c(F)cc7ncc(F)c5c76)(CC3)OC4)nc2N1 | <4 | 0.25 (≈ 0.476 µM) | 4 (≈ 7.61 µM) | > 60 | 4 (≈ 7.61 µM) | 4 (≈ 7.61 µM) | 2 (≈ 3.81 µM) | 0.5 (≈ 0.951 µM) | 16 (≈ 30.4 µM) | 1 (≈ 1.9 µM) | 0.25 (≈ 0.476 µM) | –
7 | Cc1cc(=O)n2c3c(c(F)cnc13)[C@@](O)(CC13CCC(NCc4ccc5c(n4)NC(=O)CO5)(CC1)CO3)C2 | <4 | 8 (≈ 15.3 µM) | 2 (≈ 3.83 µM) | > 60 | 32 (≈ 61.4 µM) | 32 (≈ 61.4 µM) | 16 (≈ 30.7 µM) | 8 (≈ 15.3 µM) | 32 (≈ 61.4 µM) | 16 (≈ 30.7 µM) | 2 (≈ 3.83 µM) | –
8 | Cc1cc(=O)n2c3c(c(F)cnc13)[C@](O)(CC13CCC(NCc4ccc5c(n4)NC(=O)CO5)(CC1)CO3)C2 | <4 | 0.5 (≈ 0.959 µM) | 0.5 (≈ 0.959 µM) | > 60 | 8 (≈ 15.3 µM) | 8 (≈ 15.3 µM) | 4 (≈ 7.67 µM) | 1 (≈ 1.92 µM) | 32 (≈ 61.4 µM) | 4 (≈ 7.67 µM) | 0.5 (≈ 0.959 µM) | –
9 | C[C@H]1COc2c(N3CCN(C)CC3)c(F)cc3c(=O)c(C(=O)O)cn1c23.C[C@H]1COc2c(N3CCN(C)CC3)c(F)cc3c(=O)c(C(=O)O)cn1c23.O [LEVOFLOXACIN] | <4 | – | – | – | – | – | – | – | – | – | – | MIC (Staphylococcus aureus [6]): 0.25 µg/mL; MIC (Staphylococcus aureus [7]): > 16 µg/mL
10 | O=C1COc2ccc(CNC34CCC(C[C@@]5(O)Cn6c(=O)ccc7ncc(Cl)c5c76)(CC3)OC4)nc2N1 | <4 | 4 (≈ 7.63 µM) | 32 (≈ 61.1 µM) | > 60 | 32 (≈ 61.1 µM) | 32 (≈ 61.1 µM) | 16 (≈ 30.5 µM) | 4 (≈ 7.63 µM) | 32 (≈ 61.1 µM) | – | – | –
11 | O=C1COc2ccc(CNC34CCC(CC5Cn6c(=O)ccc7ncc(F)c5c76)(CC3)OC4)nc2N1 (stereo in doubt; 10) | – | – | – | 12.3 | – | – | – | – | – | – | – | MIC (Staphylococcus aureus [2]): 0.5 µg/mL (≈ 1.02 µM); IC50 [8]: 21.6 µM; MIC (Acinetobacter baumannii): 8 µg/mL (≈ 16.3 µM); MIC (Escherichia coli): 2 µg/mL (≈ 4.07 µM); MIC (Enterococcus faecium): 4 µg/mL (≈ 8.14 µM); MIC (Enterococcus faecalis): 2 µg/mL (≈ 4.07 µM); MIC (Streptococcus pneumoniae): 0.5 µg/mL (≈ 1.02 µM); MIC (Pseudomonas aeruginosa): 16 µg/mL (≈ 32.6 µM)
12 | O=C1COc2ccc(CNC34CCC(C[C@@]5(O)Cn6c(=O)c(F)cc7ncc(F)c5c76)(CC3)OC4)nc2N1 | <4 | 4 (≈ 7.61 µM) | 32 (≈ 60.9 µM) | > 60 | 16 (≈ 30.4 µM) | 32 (≈ 60.9 µM) | 16 (≈ 30.4 µM) | 4 (≈ 7.61 µM) | 32 (≈ 60.9 µM) | 8 (≈ 15.2 µM) | 1 (≈ 1.9 µM) | –
